{
  "source": "patent US7709460B2",
  "about": "“Method for treating or preventing a functional vitamin B12 deficiency in an individual and medical compositions for use in said method” (Cobalz Limited, priority 2001, dated 2010)",
  "key": {"[1]": {"tested_on": "cob(III)alamin reductase (CR)", "details": "literature study (reference 15); cited from earlier work"}, "[2]": {"assay": "side effects reported by patients", "format": "in vivo, human"}, "[3]": {"tested_on": "patients with a functional Vitamin B12 deficiency and suffering from a neuropsychiatric abnormality", "assay": "clinical observation of symptoms and behaviour in case reports (Example 2)", "format": "in vivo, human", "description": "(§1) The effect of generating a cobalt-sulphur bond by the co-administration of hydroxocobalamin and a glutathione precursor (N-acetyl cysteine or α-lipoic acid) on the symptoms of seven patients suffering from neuropsychiatric abnormalities was investigated."}, "[4]": {"tested_on": "patients with a functional Vitamin B12 deficiency and suffering from a neuropsychiatric abnormality", "assay": "Mini-Mental State Examination (MMSE) in treated patients", "format": "in vivo, human", "protocol": "(§2) Cognitive scores (Mini Metal State Examination (MMSE) and the cognitive component of the Alzheimer Disease Assessment Scale (ADAS-Cog)) were recorded for cases and controls (16, 17).\nas §1"}, "[5]": {"tested_on": "patients with a functional Vitamin B12 deficiency and suffering from a neuropsychiatric abnormality", "assay": "cognitive component of the Alzheimer Disease Assessment Scale (ADAS-Cog) in treated patients", "format": "in vivo, human", "protocol": "as §2, §1"}, "[6]": {"assay": "serum homocysteine level under treatment", "format": "in vivo, human", "details": "Patient 4; monthly hydroxocobalamin plus oral folate, 1999; 23.7 μmol/l before treatment"}, "[7]": {"details": "Patient 4, N-acetylcysteine 600 mg daily added to B-vitamin supplementation"}, "[8]": {"details": "Patient 7, 600 mg NAC daily added to hydroxocobalamin and folate, one month"}, "[9]": {"details": "Patient 1, N-acetyl cysteine 600 mg daily added to monthly hydroxocobalamin, two weeks"}, "[10]": {"details": "Patient 4, monthly hydroxocobalamin plus oral folate, 1999"}},
  "data": [
    {"compound": "C/C1=C2/[N-][C@H]([C@H](CC(N)=O)[C@@]2(C)CCC(=O)NC[C@@H](C)OP(=O)([O-])O[C@H]2[C@@H](O)[C@@H](n3cnc4cc(C)c(C)cc43)O[C@@H]2CO)[C@]2(C)N=C(/C(C)=C3N=C(/C=C4N=C1[C@@H](CCC(N)=O)C\\4(C)C)[C@@H](CCC(N)=O)[C@]\\3(C)CC(N)=O)[C@@H](CCC(N)=O)[C@]2(C)CC(N)=O.[CH2-][C@H]1O[C@@H](n2cnc3c(N)ncnc32)[C@H](O)[C@@H]1O.[Co]", "note": "[Ado-Cbl, adenosyl cobalamin]", "values": [
      {"measurement": "use as substrate / reductase activity", "setting": "[1]", "result": "Little or no reductase activity"}
    ]},
    {"compound": "CC(=O)N[C@@H](CS)C(=O)O", "note": "[N-acetyl cysteine]", "values": [
      {"measurement": "side effects", "setting": "[2]; Patient 5, oral N-Acetylcysteine 400 mg daily", "result": "some gastroenteric side effects"},
      {"measurement": "side effects", "setting": "[2]; Patient 6, NAC, limited them to 100 mg daily", "result": "gastro intestinal side effects"},
      {"measurement": "clinical response (husband's report)", "setting": "[3]; Patient 1, N-acetyl cysteine 600 mg daily added to hydroxocobalamin, two weeks", "result": "some noticeable improvement in their memory"},
      {"measurement": "clinical response (family and nursing staff)", "setting": "[3]; Patient 3, severe dementia, oral N-acetyl cysteine 600 mg daily added to hydroxocobalamin", "result": "significant improvement in their condition"},
      {"measurement": "clinical response (behaviour)", "setting": "[3]; [7]", "result": "their behaviour was considerably improved"},
      {"measurement": "frequency of vitamin B12 injections needed", "setting": "[3]; Patient 5, N-Acetylcysteine 400 mg daily, after three months, three times weekly before", "result": "once weekly"},
      {"measurement": "clinical response", "setting": "[3]; Patient 5, oral N-Acetylcysteine 400 mg daily added to vitamin B12 regime, after a month", "result": "more lively and with less headaches"},
      {"measurement": "clinical response", "setting": "[3]; Patient 6, NAC 100 mg daily added to 1 mg oral cobalamin and 5 mg folic acid daily, 4 months", "result": "definitely improved"},
      {"measurement": "clinical response (staff comment)", "setting": "[3]; [8]", "result": "less agitated, and more contented"},
      {"measurement": "MMSE score", "setting": "[4]; [9]", "result": "21/30"},
      {"measurement": "MMSE score", "setting": "[4]; Patient 2, oral N-acetylcysteine 600 mg added to hydroxocobalamin, one month", "result": "25/30"},
      {"measurement": "cognitive score", "setting": "[4]; [7]", "result": "no improvement in their cognitive score"},
      {"measurement": "improvement on the ADAS-Cog score", "setting": "[5]; Patient 1, N-acetyl cysteine 600 mg daily added to hydroxocobalamin, two weeks vs before", "result": "eight"},
      {"measurement": "ADAS-Cog score", "setting": "[5]; [9]", "result": "20/70"},
      {"measurement": "further change on the ADAS-Cog score", "setting": "[5]; Patient 1, N-acetyl cysteine added to hydroxocobalamin, four-week assessment", "result": "gained an additional point"},
      {"measurement": "points gained on ADAS-Cog score", "setting": "[5]; [8]", "result": 6, "unit": "points"}
    ]},
    {"compound": "Nc1nc2ncc(CNc3ccc(C(=O)N[C@@H](CCC(=O)O)C(=O)O)cc3)nc2c(=O)[nH]1", "note": "[folic acid]", "values": [
      {"measurement": "clinical response", "setting": "[3]; Patient 2, age-associated memory impairment, folic acid supplements for some months", "result": "no significant change in their symptoms"}
    ]},
    {"compound": "C/C1=C2/[N-][C@H]([C@H](CC(N)=O)[C@@]2(C)CCC(=O)NC[C@@H](C)OP(=O)([O-])O[C@H]2[C@@H](O)[C@@H](n3cnc4cc(C)c(C)cc43)O[C@@H]2CO)[C@]2(C)N=C(/C(C)=C3N=C(/C=C4N=C1[C@@H](CCC(N)=O)C\\4(C)C)[C@@H](CCC(N)=O)[C@]\\3(C)CC(N)=O)[C@@H](CCC(N)=O)[C@]2(C)CC(N)=O.[Co+3].[OH-]", "note": "[hydroxocobalamin]", "values": [
      {"measurement": "serum homocysteine level", "setting": "[6]", "result": 5.7, "unit": "µmol/L"},
      {"measurement": "clinical response", "setting": "[3]; Patient 1, monthly injections of hydroxocobalamin, from 1994", "result": "neuropsychiatric symptoms were initially much improved"},
      {"measurement": "clinical response (husband's report)", "setting": "[3]; Patient 2, monthly injections of hydroxocobalamin", "result": "no significant change in their condition"},
      {"measurement": "clinical response", "setting": "[3]; Patient 3, probable Alzheimer-type dementia, monthly hydroxocobalamin, ensuing 2 years", "result": "their mental condition continued to deteriorate"},
      {"measurement": "clinical response", "setting": "[3]; Patient 4, probable Alzheimer-type dementia, monthly hydroxocobalamin plus folic acid 5 mg daily", "result": "their cognitive function continued to slowly deteriorate"},
      {"measurement": "cognitive function", "setting": "[3]; Patient 7, vascular dementia, weekly hydroxocobalamin injections with oral folate supplement", "result": "no significant improvement in their cognitive function"},
      {"measurement": "MMSE score", "setting": "[4]; Patient 1, regular monthly hydroxocobalamin injections alone, February 2001, before N-acetyl cysteine", "result": "18/30"},
      {"measurement": "MMSE score", "setting": "[4]; Patient 2, monthly hydroxocobalamin, after 6 months", "result": "21/30"},
      {"measurement": "MMSE score", "setting": "[4]; Patient 3, on monthly hydroxocobalamin, cognitive review in 1997", "result": "13/30"},
      {"measurement": "MMSE score", "setting": "[4]; [10]", "result": "5/30"},
      {"measurement": "ADAS-Cog score", "setting": "[5]; Patient 1, regular monthly hydroxocobalamin alone, February 2001", "result": "28/70"},
      {"measurement": "ADAS-Cog score", "setting": "[5]; [10]", "result": 70},
      {"measurement": "ADAS-Cog score", "setting": "[5]; Patient 7, weekly hydroxocobalamin with oral folate, before NAC", "result": 68}
    ]},
    {"compound": "C/C1=C2/[N-][C@H]([C@H](CC(N)=O)[C@@]2(C)CCC(=O)NC[C@H](C)OP(=O)([O-])O[C@H]2[C@@H](O)[C@@H](n3cnc4cc(C)c(C)cc43)O[C@@H]2CO)[C@]2(C)N=C(/C(C)=C3N=C(/C=C4N=C1[C@@H](CCC(N)=O)C\\4(C)C)[C@@H](CCC(N)=O)[C@]\\3(C)CC(N)=O)[C@@H](CCC(N)=O)[C@]2(C)CC(N)=O.[CH3-].[Co+3]", "note": "[methylcobalamin]", "values": [
      {"measurement": "clinical response", "setting": "[3]; Patient 5, Chronic Fatigue Syndrome, subcutaneous methylcobalamin twice weekly", "result": "clear improvement after only their third injection"},
      {"measurement": "clinical condition on withdrawal of injections", "setting": "[3]; Patient 5, methylcobalamin injections withdrawn in 1994", "result": "marked deterioration in relation to the withdrawal of these injections"},
      {"measurement": "use as substrate / reductase activity", "setting": "[1]", "result": "Little or no reductase activity"}
    ]},
    {"compound": "O=C(O)CCCCC1CCSS1", "note": "(stereo not drawn) [α-lipoic acid]", "values": [
      {"measurement": "clinical response", "setting": "[3]; Patient 4, changed from N-acetylcysteine to α-lipoic acid 50 mg twice daily, with B vitamins", "result": "clinical improvement was maintained one year later"}
    ]},
    {"compound": "cyanocobalamin [CN-Cbl]", "values": [
      {"measurement": "use as substrate / reductase activity", "setting": "[1]", "result": "Little or no reductase activity"}
    ]},
    {"compound": "vitamin B12", "values": [
      {"measurement": "clinical response", "setting": "[3]; Patient 6, presumed multiple sclerosis, regular injections of vitamin B12", "result": "very apparent improvement in their symptoms"}
    ]}
  ]
}
